Values joined by “and” are separate entries in the source; they are usually repeats but may differ in a detail not shown here. Equal values may be shown once.
Tested on: K24384-001-R-PDC complex spheroid viability
Assay: Anticancer human tumor K24384-001-R-PDC patient-derived pancreatic adenocarcinoma cell line growth inhibition
Conditions: for viability, T/C: stronger effect = lower value
Outline: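 Complex spheroids of tumor cells with HUVEC and human MSCs, exposed to iadademstat combined with other agents. Each agent tested in half-log steps from near clinical Cmax (else 10 microM top), DMSO ≤0.25%.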

[1] = curve of first compound, second compound 0.1 µM
[2] = curve of first compound, second compound 0.316 µM
[3] = curve of first compound, second compound 1 µM
[4] = curve of first compound, second compound 3.16 µM
[5] = curve of first compound, second compound 10 µM
[6] = second compound 0.1 µM, first compound 0.00316 µM
[7] = second compound 0.1 µM, first compound 0.01 µM
[8] = second compound 0.1 µM, first compound 0.0316 µM
[9] = second compound 0.1 µM, first compound 0.1 µM
[10] = second compound 0.316 µM, first compound 0.00316 µM
[11] = second compound 0.316 µM, first compound 0.01 µM
[12] = second compound 0.316 µM, first compound 0.0316 µM
[13] = second compound 0.316 µM, first compound 0.1 µM
[14] = second compound 1 µM, first compound 0.00316 µM
[15] = second compound 1 µM, first compound 0.01 µM
[16] = second compound 1 µM, first compound 0.0316 µM
[17] = second compound 1 µM, first compound 0.1 µM
[18] = second compound 3.16 µM, first compound 0.00316 µM
[19] = second compound 3.16 µM, first compound 0.01 µM
[20] = second compound 3.16 µM, first compound 0.0316 µM
[21] = second compound 3.16 µM, first compound 0.1 µM
[22] = second compound 10 µM, first compound 0.00316 µM
[23] = second compound 10 µM, first compound 0.01 µM
[24] = second compound 10 µM, first compound 0.0316 µM
[25] = second compound 10 µM, first compound 0.1 µM
[26] = second compound 0.1 µM, first compound 0.316 µM
[27] = second compound 0.1 µM, first compound 1 µM
[28] = second compound 0.1 µM, first compound 3.16 µM
[29] = second compound 0.1 µM, first compound 10 µM
[30] = second compound 0.316 µM, first compound 0.316 µM
[31] = second compound 0.316 µM, first compound 1 µM
[32] = second compound 0.316 µM, first compound 3.16 µM
[33] = second compound 0.316 µM, first compound 10 µM
[34] = second compound 1 µM, first compound 0.316 µM
[35] = second compound 1 µM, first compound 1 µM
[36] = second compound 1 µM, first compound 3.16 µM
[37] = second compound 1 µM, first compound 10 µM
[38] = second compound 3.16 µM, first compound 0.316 µM
[39] = second compound 3.16 µM, first compound 1 µM
[40] = second compound 3.16 µM, first compound 3.16 µM
[41] = second compound 3.16 µM, first compound 10 µM
[42] = second compound 10 µM, first compound 0.316 µM
[43] = second compound 10 µM, first compound 1 µM
[44] = second compound 10 µM, first compound 3.16 µM
[45] = second compound 10 µM, first compound 10 µM
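Also: spheroids exposed to agents for seven days before luminescence viability reading.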
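For viability, T/C in this document: 100% = DMSO vehicle control viability.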

Compound | IC50 [1] | IC50 [2] | IC50 [3] | IC50 [4] | IC50 [5] | viability, T/C [8] | viability, T/C [9] | viability, T/C [12] | viability, T/C [13] | viability, T/C [16] | viability, T/C [17] | viability, T/C [20] | viability, T/C [21] | viability, T/C [24] | viability, T/C [25] | viability, T/C [26] | viability, T/C [27] | viability, T/C [30] | viability, T/C [31] | viability, T/C [34] | also measured
CC(C)CC(NC(=O)C(Cc1ccccc1)NC(=O)c1cnccn1)B(O)O (configuration not stated) + NC1CC1c1ccc(-c2cccc(O)c2)cc1 | 0.518 nM | 0.554 nM | 0.541 nM | 0.514 nM | 0.383 nM | 0.24% | 0.27% | 0.24% | 1.4% | 0.15% | 0.92% | 0.18% | 0.22% | 1.14% | 2.44% |  |  |  |  |  | viability, T/C (second compound 0.1 µM, first compound 0.000316 µM): 85.9%; viability, T/C (second compound 0.1 µM, first compound 0.001 µM): 2.19%; viability, T/C [6]: 0.45%; viability, T/C [7]: 0.17%; viability, T/C (second compound 0.316 µM, first compound 0.000316 µM): 95.9%; viability, T/C (second compound 0.316 µM, first compound 0.001 µM): 1.68%; viability, T/C [10]: 2.35%; viability, T/C [11]: 0.3%; viability, T/C (second compound 1 µM, first compound 0.000316 µM): 92%; viability, T/C (second compound 1 µM, first compound 0.001 µM): 1.87%; viability, T/C [14]: 0.24%; viability, T/C [15]: 0.3%; viability, T/C (second compound 3.16 µM, first compound 0.000316 µM): 85.5%; viability, T/C (second compound 3.16 µM, first compound 0.001 µM): 1.44%; viability, T/C [18]: 0.32%; viability, T/C [19]: 0.19%; viability, T/C (second compound 10 µM, first compound 0.000316 µM): 59.5%; viability, T/C (second compound 10 µM, first compound 0.001 µM): 1.6%; viability, T/C [22]: 3.23%; viability, T/C [23]: 1.83%
CC1COCCN1c1cc(C2(S(C)(=N)=O)CC2)nc(-c2ccnc3[nH]ccc23)n1 (configuration not stated) + NC1CC1c1ccc(-c2cccc(O)c2)cc1 | 1550 nM | 1380 nM | 1180 nM | 1320 nM | 776 nM | 89.4% | 108% | 85.8% | 85.9% | 79.5% | 73.9% | 82.4% | 77.4% | 87.7% | 81.5% | 95.3% | 58.8% | 72.3% | 57.7% | 76.5% | viability, T/C [28]: 33.7%; viability, T/C [29]: 38.1%; viability, T/C [32]: 34%; viability, T/C [33]: 36.4%; viability, T/C [35]: 53%; viability, T/C [36]: 29.1%; viability, T/C [37]: 34.1%; viability, T/C [38]: 73.2%; viability, T/C [39]: 56.7%; viability, T/C [40]: 27.9%; viability, T/C [41]: 32%; viability, T/C [42]: 70%; viability, T/C [43]: 45.2%; viability, T/C [44]: 29.1%; viability, T/C [45]: 31.1%
Nc1ncn(C2CC(O)C(CO)O2)c(=O)n1 (configuration not stated) + NC1CC1c1ccc(-c2cccc(O)c2)cc1 | > 1000 nM | > 1000 nM | > 1000 nM | > 1000 nM | > 1000 nM | 97.5% | 80.2% | 86.5% | 85.3% | 84% | 67.9% | 87.8% | 79.2% | 89.4% | 90.3% | 70.4% | 79% | 78.6% | 68.9% | 72.5% | viability, T/C [6]: 89.9%; viability, T/C [7]: 86.7%; viability, T/C [10]: 78.3%; viability, T/C [11]: 98.4%; viability, T/C [14]: 97.8%; viability, T/C [15]: 91.3%; viability, T/C [35]: 70.6%; viability, T/C [18]: 88.4%; viability, T/C [19]: 88.4%; viability, T/C [38]: 80.1%; viability, T/C [39]: 82.6%; viability, T/C [22]: 101%; viability, T/C [23]: 97.2%; viability, T/C [42]: 77.9%; viability, T/C [43]: 87.7%
CC(C)c1c(-c2ccccc2)nc2c(C#N)c[nH]n2c1=O |  |  |  |  |  |  |  |  |  |  |  |  |  |  |  |  |  |  |  |  | viability, T/C (compound 0.0316 µM): 89.9% and 82.5%; viability, T/C (compound 0.1 µM): 88.6% and 104%; viability, T/C (compound 0.316 µM): 96.9% and 93.2%; viability, T/C (compound 1 µM): 94.9% and 81.5%; viability, T/C (compound 3.16 µM): 97.4% and 69.9%; viability, T/C (compound 10 µM): 104% and 91.6%; IC50 (curve of compound): > 10000 nM
CC(C)c1c(-c2ccccc2)nc2c(C#N)c[nH]n2c1=O + NC1CCC(NC2CC2c2ccccc2)CC1 | > 10000 nM | > 10000 nM | > 10000 nM | > 10000 nM | > 10000 nM | 78.2% | 80.2% | 78.3% | 70.4% | 72.5% | 67.4% | 73% | 81.5% | 77.2% | 74.7% | 77.7% | 77.3% | 85.8% | 72.2% | 96.3% | viability, T/C [28]: 81.4%; viability, T/C [29]: 81%; viability, T/C [32]: 77.1%; viability, T/C [33]: 87.5%; viability, T/C [35]: 75.3%; viability, T/C [36]: 75%; viability, T/C [37]: 97.4%; viability, T/C [38]: 82.5%; viability, T/C [39]: 71%; viability, T/C [40]: 75%; viability, T/C [41]: 77.9%; viability, T/C [42]: 80.2%; viability, T/C [43]: 76.6%; viability, T/C [44]: 80.1%; viability, T/C [45]: 83.6%

From PubChem BioAssay AID1918949 (Molecular Pharmacology Branch, DTP, NCI, 2023)
